Experimental data: US9408891B2, “Methods of using gelsolin to treat or prevent bacterial sepsis” (priority 2003, dated 2016)
Entries after “also recorded” stand apart in the source; their conditions may differ.

How the values were obtained:
[1] = system: rat primary astrocytes; assay: LPS-induced actin cytoskeleton disassembly, phalloidin staining, astrocytes; type: cell-based; conditions: LPS 10 μg/ml, 10 min
Excerpt: In light of the findings in the previous Examples, and using the materials prepared in above, the effect of the gelsolin binding by LPS was studied to determine the effect on cellular responses in vitro. Cell cultures of human aortic endothelial cells (HAEC) and rat primary astrocytes were used to evaluate the effect of LPS on actin. Both of these cell types have mCD14 (membrane bound C14) and TLR LPS receptors (Faure, et al., J. Biol. Chem. 275:11058-11063 (2000); Bsibsi, et al., J. Neuropathol. Exp. Neurol. 61:1013-1021 (2002); Bowman, et al., Glia 43:281-291 (2003)).
Rat primary astrocytes were obtained from prenatal rats and maintained for 14 days in culture before use. Embryos (E17-E19) were removed by caesarian section from a Sprague-Dawley rat and the hippocampi were surgically removed. The tissue was digested in trypsin/DNAse at 37° C., centrifuged (1000×5 min) and filtered to derive suspensions from each pup. […]
HAECs and astrocytes cultures were incubated for 10 minutes in medium containing 10 μg/ml LPS alone, or LPS that had been pre-incubated with 0.16 mg/ml of human gelsolin. […] Location of transcription factor nuclear factor-kappaB (NF-κB) was observed using a monoclonal antibody to NF-κB (Molecular Probes), and cell nuclei were detected by counter-staining with 4′, 6-diamidino-2-phenylindole dihydrochloride (DAPI) (Sigma).

[2] = target: T1, Gc-globulin (vitamin D-binding protein) (Homo sapiens, UniProt P02774); assay: Actin-sequestering activity of Gc-globulin; type: biochemical; conditions: LPS at least up to 100 μM
T1 sequence (P02774 17-474): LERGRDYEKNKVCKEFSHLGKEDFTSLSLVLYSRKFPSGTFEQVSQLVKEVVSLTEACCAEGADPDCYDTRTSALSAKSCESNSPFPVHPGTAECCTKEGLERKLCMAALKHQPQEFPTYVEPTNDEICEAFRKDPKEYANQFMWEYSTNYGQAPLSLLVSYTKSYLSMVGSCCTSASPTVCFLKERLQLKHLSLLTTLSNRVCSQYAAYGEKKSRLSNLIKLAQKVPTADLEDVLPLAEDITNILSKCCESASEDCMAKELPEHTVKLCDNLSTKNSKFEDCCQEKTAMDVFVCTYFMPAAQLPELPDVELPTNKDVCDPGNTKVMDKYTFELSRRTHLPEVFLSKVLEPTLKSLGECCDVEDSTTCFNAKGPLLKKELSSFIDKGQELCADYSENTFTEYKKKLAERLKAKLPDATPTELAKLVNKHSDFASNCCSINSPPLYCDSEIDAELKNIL

[3] = target: T2, gelsolin activity in whole human serum (Homo sapiens, UniProt P06396); assay: Actin filament severing activity of whole human serum; type: biochemical; conditions: larger amounts needed than with pure gelsolin
T2 construct: from tissue; host or cells: whole human serum (2.5 µl)
T2 sequence (P06396 28-782): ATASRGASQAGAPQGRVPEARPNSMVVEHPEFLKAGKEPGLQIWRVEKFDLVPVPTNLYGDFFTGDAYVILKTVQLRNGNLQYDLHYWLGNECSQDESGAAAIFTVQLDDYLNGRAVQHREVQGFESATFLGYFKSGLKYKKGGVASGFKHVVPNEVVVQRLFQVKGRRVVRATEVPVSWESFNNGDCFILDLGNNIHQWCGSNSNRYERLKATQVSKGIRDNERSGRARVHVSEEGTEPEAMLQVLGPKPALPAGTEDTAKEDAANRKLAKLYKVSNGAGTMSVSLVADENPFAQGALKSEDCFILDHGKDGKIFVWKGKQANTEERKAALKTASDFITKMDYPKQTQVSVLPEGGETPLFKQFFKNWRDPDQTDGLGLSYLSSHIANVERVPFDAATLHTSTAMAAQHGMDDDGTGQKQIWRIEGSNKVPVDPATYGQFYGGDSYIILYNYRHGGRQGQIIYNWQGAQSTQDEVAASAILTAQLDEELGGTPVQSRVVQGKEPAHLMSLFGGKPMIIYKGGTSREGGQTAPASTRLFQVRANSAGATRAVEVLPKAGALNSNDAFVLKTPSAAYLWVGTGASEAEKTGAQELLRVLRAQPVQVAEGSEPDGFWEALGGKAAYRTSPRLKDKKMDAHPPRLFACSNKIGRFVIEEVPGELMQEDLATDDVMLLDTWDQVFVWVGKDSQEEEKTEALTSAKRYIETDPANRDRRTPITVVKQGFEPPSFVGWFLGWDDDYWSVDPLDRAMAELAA
Method: (§1) As shown, recombinant human gelsolin (rhGLS) (FIG. 4A) and blood serum (FIG. 4B) severing activity was measured in 0.4 μM pyrene-labeled F-actin samples (polymerized with 50% pyrene-labeled G-actin), after adding gelsolin (16 nM)/serum (2.5 μl), or their combination with one of the following: LPS (from different species), PIP2 (phosphatidyl-inositol-4,5-bisphosphate), LPA (lysophosphatidic acid), lipid A (the LPS derivative lacking polysaccharide) or PS (phosphatidylserine). The fluorescence intensity of F-pyrene actin was then monitored for 10 minutes, and the severing activity was calculated based on decreasing fluorescence. Severing activity was determined from a decrease in rate of fluorescence during depolymerization, and the depolymerization rate was calculated from the slope of the early decrease in fluorescence.

[4] = target: T3, recombinant human gelsolin (rhGLS) (Homo sapiens, UniProt P06396); assay: Actin filament severing activity of purified gelsolin (pyrene F-actin depolymerization); type: biochemical
T3 construct: purchased Biogen IDEC, Inc., Cambridge, Mass; host or cells: E. coli
T3 sequence (P06396 28-782): as above
Method: To determine gelsolin's severing activity, rates of fluorescence decrease were evaluated during depolymerization. Monomeric G-actin was prepared from an acetone powder of rabbit skeletal muscle according to previously published methods (Spudich et al., J. Biol. Chem […]). The non-polymerizing solution contained 2 mM TRIS, 0.2 mM CaCl2, 0.5 mM ATP (adenosine triphosphate), 0.2 mM DTT (dithiothreitol) pH 7.4. Actin was polymerized by adding 150 mM KCl and 2 mM MgCl2 to the G-actin solutions and incubating for 1 hour at room temperature.
For F-actin severing assays, in general, a small volume (typically 5 μl) of the gelsolin composition is added to a similar volume of pyrene-labeled F-actin at a concentration adjusted to provide an actin:gelsolin ratio of approximately 10:1 (typically 1 μM gelsolin and 10 μM actin). This mixture is the diluted to 0.5 μM in a larger volume of F-actin buffer, and the filament severing efficiency is calculated from the initial slope of the fluorescence change. This reflects the rate of depolymerization that, in turn, is proportional to the number of cuts made by gelsolin. The LPS/gelsolin reaction can be done under any ionic condition, and the addition to F-actin requires the presence of […] Ca^2+ to activate the gelsolin. […] The actin nucleation reaction is similar except that in the latter case, the gelsolin/LPS mixture is added to a more dilute solution of G-actin (typically, 1 or 2 μM) in low ionic strength buffer followed immediately by addition of 150 mM KCI and 2 mM MgCl2 to initiate polymerization.
as §1

[5] = target: T3, recombinant human gelsolin (rhGLS); assay: Change of gelsolin OD at 280 nm after adding lipids; type: binding; conditions: OD 280 nm
Method: Therefore, to determine changes of gelsolin OD at 280 nm, different amounts of LPS, LPA and PS were added to recombinant human gelsolin (rhGLS) solutions and OD emission spectra were recorded using spectrophotometer Genesys 6 (Thermo-Spectronic, USA).

Q: With lipopolysaccharide [LPS] as the substance, how does the “effect of LPS alone on actin cytoskeleton” value [1] read?
A: rapidly induced the disassembly of the actin cytoskeleton; also recorded: disassembly of the actin cytoskeleton was readily induced; also recorded: rapidly induced disassembly of the actin cytoskeleton

Q: What about the “effect on actin-sequestering activity of Gc-globulin” value [2] of the same substance?
A: unaffected

Q: What about the “inhibition of gelsolin activity in whole human serum” value [3] of the same substance?
A: able to inhibit gelsolin activity; also recorded: inhibitory efficiency varies with the bacterial species

Q: What about the “inhibition of severing activity of gelsolin” value ([4]; 0.02 μM LPS (100 ng/ml), 0.016 μM gelsolin) of the same substance?
A: 50%

Q: What about the “inhibition of severing capability of gelsolin” value ([4]; 0.1 μM LPS, 0.016 μM gelsolin) of the same substance?
A: 90%

Q: What about the “inhibition of severing activity of purified human gelsolin” value ([4]; LPS concentration not stated at this place) of the same substance?
A: 50%

Q: What about the “inhibitory effect on severing activity of purified gelsolin” value ([4]; molar basis comparison) of the same substance?
A: more potent inhibitor than either LPA or P1P2; also recorded: more potent inhibitor; also recorded: more potent inhibitor of gelsolin actin severing capability than either LPA or PIP2

Q: What about the “maximal decrease in UV absorbance of intact gelsolin” value [5] of the same substance?
A: ~35%
